Common to all, as to assay type: cell-based
The test system of assay [1] is E. coli MP-4. As to the kind of experiment: Broth dilution MIC determination (CLSI), E. coli MP-4. To be noted: Escherichia coli.
Assay [2] concerns S. aureus MP-12. As to the kind of experiment: Broth dilution MIC determination (CLSI), S. aureus MP-12. To be noted: Staphylococcus aureus, MP12; strain MP-12, broth dilution.
For assay [3], the system named is A. baumannii MP-15. The experiment in a line: Broth dilution MIC determination (CLSI), A. baumannii MP-15. To be noted: Acinetobacter baumannii, MP15; strain MP-15, broth dilution; read-out: MIC A. baumanii MP-15.
For assay [4], the system named is P. aeruginosa MP-3. The experiment in a line: Broth dilution MIC determination (CLSI), P. aeruginosa MP-3. To be noted: Pseudomonas aeruginosa, MP3; strain MP-3, broth dilution.
Assay [5] has as its system K. pneumoniae MP-546. The experiment in a line: Broth dilution MIC determination (CLSI), K. pneumoniae MP-546. To be noted: Klebsiella pneumoniae, MP546; strain MP-546, broth dilution.
[6] abbreviates: MP4, strain MP-4, broth dilution, read-out: MIC E. coli MP-4.

Structures are written as SMILES. Values after ≈ are worked out from the molar mass of the structure shown. Where two headings read alike, the source gives them in different places. Where only a bound is given, the exact number is not on record here.

On to `CO[C@]1(C)C[C@@H](C)CN(C)[C@@H]([C@@H]2CCCNC2)COC(=O)C(C)(C)C(=O)[C@H](C)[C@H]1O[C@@H]1O[C@H](C)C[C@H](N(C)C)[C@H]1O` [Compound 53], for which the MIC in assay [1] (setting [6]) was below 4 µg/mL; in assay [2], 4 to 32 µg/mL (≈ 6.85 to 54.8 µM); in assay [3] it was above 32 µg/mL; in assay [4], above 32 µg/mL; in assay [5], below 4 µg/mL.
`CCN1CCC[C@@H]([C@@H]2COC(=O)C(C)(C)C(=O)[C@H](C)[C@@H](O[C@@H]3O[C@H](C)C[C@H](N(C)C)[C@H]3O)[C@](C)(OC)C[C@@H](C)CN2C)C1` [Compound 117, (3R,6R,8R,9R,10R)-9-(((2S,3R,4S,6R)-4-(dimethylamino)-3-hydroxy-6-methyltetrahydro-2H-pyran-2-yl)oxy)-3-((R)-1-ethylpiperidin-3-yl)-8-methoxy-4,6,8,10,12,12-hexamethyl-1-oxa-4-azacyclotridecane-11,13-dione]: the MIC in assay [1] (setting [6]) was 4 to 32 µg/mL (≈ 6.54 to 52.3 µM); in assay [2], above 32 µg/mL; in assay [3] it was above 32 µg/mL; in assay [4] it was above 32 µg/mL; in assay [5] it was 4 to 32 µg/mL (≈ 6.54 to 52.3 µM).
With `C=CCN1CC=C([C@H]2[C@@H](C)OC(=O)C(C)(C)C(=O)[C@H](C)[C@@H](O[C@@H]3O[C@H](C)C[C@H](N(C)C)[C@H]3O)[C@](C)(OC)C[C@@H](C)CN2C)CC1` [Compound 1, (2R,3S,6R,8R,9R,10R)-3-(1-Allyl-1,2,3,6-tetrahydropyridin-4-yl)-9-(((2S,3R,4S,6R)-4-(dimethylamino)-3-hydroxy-6-methyltetrahydro-2H-pyran-2-yl)oxy)-8-methoxy-2,4,6,8,10,12,12-heptamethyl-1-oxa-4-azacyclotridecane-11,13-dione], the MIC in assay [1] (setting [6]), in assay [2], in assay [3], in assay [4] and in assay [5] was above 32 µg/mL in each case.
In the case of `CO[C@]1(C)C[C@@H](C)CN(C)[C@@H]([C@@H]2CCN(C(=O)CN(C)C)C2)COC(=O)C(C)(C)C(=O)[C@H](C)[C@H]1O[C@@H]1O[C@H](C)C[C@H](N(C)C)[C@H]1O` [Compound 169, (3S,6R,8R,9R,10R)-9-(((2S,3R,4S,6R)-4-(Dimethylamino)-3-hydroxy-6-methyltetrahydro-2H-pyran-2-yl)oxy)-3-((R)-1-(dimethylglycyl)pyrrolidin-3-yl)-8-methoxy-4,6,8,10,12,12-hexamethyl-1-oxa-4-azacyclotridecane-11,13-dione], the MIC is below 4 µg/mL in assay [1] (setting [6]); 4 to 32 µg/mL (≈ 6.11 to 48.9 µM) in assay [2]; above 32 µg/mL in assay [3]; above 32 µg/mL in assay [4]; 4 to 32 µg/mL (≈ 6.11 to 48.9 µM) in assay [5].
For `CO[C@]1(C)C[C@@H](C)CN(C)[C@H](c2ccccc2)COC(=O)C(C)(C)C(=O)[C@H](C)[C@H]1O[C@@H]1O[C@H](C)C[C@H](N(C)C)[C@H]1O` [Compound 42, (3R,6R,8R,9R,10R)-9-(((2S,3R,4S,6R)-4-(Dimethylamino)-3-hydroxy-6-methyltetrahydro-2H-pyran-2-yl)oxy)-8-methoxy-4,6,8,10,12,12-hexamethyl-3-phenyl-1-oxa-4-azacyclotridecane-11,13-dione], the MIC in assay [1] (setting [6]) was 4 to 32 µg/mL (≈ 6.94 to 55.5 µM); in assay [2] it was above 32 µg/mL; in assay [3], above 32 µg/mL; in assay [4], above 32 µg/mL; in assay [5], above 32 µg/mL.
For the compound `CCN1C[C@H](C)C[C@@](C)(OC)[C@H](O[C@@H]2O[C@H](C)C[C@H](N(C)C)[C@H]2O)[C@@H](C)C(=O)C(C)(C)C(=O)OC[C@H]1C1CN(C(=O)CN(C)C)C1` [Compound 38, (3R,6R,8R,9R,10R)-9-(((2S,3R,4S,6R)-4-(dimethylamino)-3-hydroxy-6-methyltetrahydro-2H-pyran-2-yl)oxy)-3-(1-(dimethylglycyl)azetidin-3-yl)-4-ethyl-8-methoxy-6,8,10,12,12-pentamethyl-1-oxa-4-azacyclotridecane-11,13-dione], the MIC in assay [1] (setting [6]) is below 4 µg/mL; in assay [2], 4 to 32 µg/mL (≈ 6.11 to 48.9 µM); in assay [3], above 32 µg/mL; in assay [4], above 32 µg/mL; in assay [5] it was 4 to 32 µg/mL (≈ 6.11 to 48.9 µM).
Consider `CO[C@]1(C)C[C@@H](C)CN(C)[C@@H](C2CN(C(=O)CN(C)C)C2)COC(=O)C(C)(C)C(=O)[C@H](C)[C@H]1O[C@@H]1O[C@H](C)C[C@H](N(C)C)[C@H]1O` [Compound 184, (3S,6R,8R,9R,10R)-9-(((2S,3R,4S,6R)-4-(dimethylamino)-3-hydroxy-6-methyltetrahydro-2H-pyran-2-yl)oxy)-3-(1-(dimethylglycyl)azetidin-3-yl)-8-methoxy-4,6,8,10,12,12-hexamethyl-1-oxa-4-azacyclotridecane-11,13-dione], for which the MIC in assay [1] (setting [6]) is below 4 µg/mL; in assay [2] it was 4 to 32 µg/mL (≈ 6.24 to 49.9 µM); in assay [3], above 32 µg/mL; in assay [4] it was above 32 µg/mL; in assay [5], below 4 µg/mL.
In the case of `CCN(CC)[C@H](C)C(=O)N1CC([C@H]2COC(=O)C(C)(C)C(=O)[C@H](C)[C@@H](O[C@@H]3O[C@H](C)C[C@H](N(C)C)[C@H]3O)[C@](C)(OC)C[C@@H](C)CN2C)C1` [Compound 74, (3S,6R,8R,9R,10R)-3-(1-(diethyl-D-alanyl)azetidin-3-yl)-9-(((2S,3R,4S,6R)-4-(dimethylamino)-3-hydroxy-6-methyltetrahydro-2H-pyran-2-yl)oxy)-8-methoxy-4,6,8,10,12,12-hexamethyl-1-oxa-4-azacyclotridecane-11,13-dione], the MIC is below 4 µg/mL in assay [1] (setting [6]); above 32 µg/mL in assay [2]; above 32 µg/mL in assay [3]; above 32 µg/mL in assay [4]; 4 to 32 µg/mL (≈ 5.86 to 46.9 µM) in assay [5].
With `CO[C@]1(C)C[C@@H](C)CN(C)[C@H](C2CN(CC=C(C)C)C2)COC(=O)C(C)(C)C(=O)[C@H](C)[C@H]1O[C@@H]1O[C@H](C)C[C@H](N(C)C)[C@H]1O` [Compound 155, (3R,6R,8R,9R,10R)-9-(((2S,3R,4S,6R)-4-(dimethylamino)-3-hydroxy-6-methyltetrahydro-2H-pyran-2-yl)oxy)-8-methoxy-4,6,8,10,12,12-hexamethyl-3-(1-(3-methylbut-2-en-1-yl)azetidin-3-yl)-1-oxa-4-azacyclotridecane-11,13-dione], the MIC in assay [1] (MP4, read-out: MIC E. coli MP-4) is below 4 µg/mL; in assay [2] it was 4 to 32 µg/mL (≈ 6.41 to 51.3 µM); in assay [3], 4 to 32 µg/mL (≈ 6.41 to 51.3 µM); in assay [4], above 32 µg/mL; in assay [5], below 4 µg/mL.
As for `CO[C@]1(C)C[C@@H](C)CN(C)[C@H](C2CCN(CC(F)F)CC2)COC(=O)C(C)(C)C(=O)[C@H](C)[C@H]1O[C@@H]1O[C@H](C)C[C@H](N(C)C)[C@H]1O` [Compound 62, (3R,6R,8R,9R,10R)-3-(1-(2,2-difluoroethyl)piperidin-4-yl)-9-(((2S,3R,4S,6R)-4-(dimethylamino)-3-hydroxy-6-methyltetrahydro-2H-pyran-2-yl)oxy)-8-methoxy-4,6,8,10,12,12-hexamethyl-1-oxa-4-azacyclotridecane-11,13-dione], the MIC in assay [1] (setting [6]) was below 4 µg/mL; in assay [2], 4 to 32 µg/mL (≈ 6.17 to 49.4 µM); in assay [3] it was above 32 µg/mL; in assay [4] it was above 32 µg/mL; in assay [5], 4 to 32 µg/mL (≈ 6.17 to 49.4 µM).
Consider `CO[C@]1(C)C[C@@H](C)CN(C)[C@H](C2CN(CC(=O)NCc3ccccc3)C2)COC(=O)C(C)(C)C(=O)[C@H](C)[C@H]1O[C@@H]1O[C@H](C)C[C@H](N(C)C)[C@H]1O` [Compound 20, N-benzyl-2-(3-((3R,6R,8R,9R,10R)-9-(((2S,3R,4S,6R)-4-(dimethylamino)-3-hydroxy-6-methyltetrahydro-2H-pyran-2-yl)oxy)-8-methoxy-4,6,8,10,12,12-hexamethyl-11,13-dioxo-1-oxa-4-azacyclotridecan-3-yl)azetidin-1-yl)acetamide], for which the MIC in assay [1] (setting [6]) is below 4 µg/mL; in assay [2], 4 to 32 µg/mL (≈ 5.69 to 45.5 µM); in assay [3] it was above 32 µg/mL; in assay [4], above 32 µg/mL; in assay [5], 4 to 32 µg/mL (≈ 5.69 to 45.5 µM).
With `CCCN1C2CCC1CC([C@@H]1COC(=O)C(C)(C)C(=O)[C@H](C)[C@@H](O[C@@H]3O[C@H](C)C[C@H](N(C)C)[C@H]3O)[C@](C)(OC)C[C@@H](C)CN1C)C2` (stereo partly drawn) [Compound 79, (3R,6R,8R,9R,10R)-9-(((2S,3R,4S,6R)-4-(dimethylamino)-3-hydroxy-6-methyltetrahydro-2H-pyran-2-yl)oxy)-8-methoxy-4,6,8,10,12,12-hexamethyl-3-(8-propyl-8-azabicyclo[3.2.1]octan-3-yl)-1-oxa-4-azacyclotridecane-11,13-dione], the MIC in assay [1] (setting [6]) is below 4 µg/mL; in assay [2], below 4 µg/mL; in assay [3] it was above 32 µg/mL; in assay [4], above 32 µg/mL; in assay [5], 4 to 32 µg/mL (≈ 6.14 to 49.1 µM).
`CCC(=O)N1CCC([C@@H]2COC(=O)C(C)(C)C(=O)[C@H](C)[C@@H](O[C@@H]3O[C@H](C)C[C@H](N(C)C)[C@H]3O)[C@](C)(OC)C[C@@H](C)CN2C)CC1` [Compound 13, (3R,6R,8R,9R,10R)-9-(((2S,3R,4S,6R)-4-(dimethylamino)-3-hydroxy-6-methyltetrahydro-2H-pyran-2-yl)oxy)-8-methoxy-4,6,8,10,12,12-hexamethyl-3-(1-propionylpiperidin-4-yl)-1-oxa-4-azacyclotridecane-11,13-dione]: the MIC is 4 to 32 µg/mL (≈ 6.25 to 50 µM) in assay [1] (setting [6]); 4 to 32 µg/mL (≈ 6.25 to 50 µM) in assay [2]; above 32 µg/mL in assay [3]; above 32 µg/mL in assay [4]; 4 to 32 µg/mL (≈ 6.25 to 50 µM) in assay [5].
